Data taken from publication PMC4805166, “Synthetic Cyclolipopeptides Selective against Microbial, Plant and Animal Cell Targets by Incorporation of D-Amino Acids or Histidine” (PLoS ONE, 2016).
Values joined by “and” are separate entries in the source; they are usually repeats but may differ in a detail not shown here. Equal values may be shown once. Read-outs that look alike come from different tables or passages of the source. Where a SMILES comes first, the peptide text is derived from it. Side-chain parts run from the residue outwards. [ ]: non-standard residue; d: D form. The star is where a group is joined. Pentanoyl(4-Me) = CC(C)CCC(=O)*; Octanoyl = CCCCCCCC(=O)*; Hexanoyl = CCCCCC(=O)*; Butyryl = CCCC(=O)*

Tests used:
[1] = system: Xanthomonas axonopodis pv. vesicatoria 2133–2; type: cell-based; conditions: TSB, 25°C, 48 h, OD 600 nm; tested at 3.1, 6.2, 12.5, 25, 50 μM; three replicates, experiment repeated twice; MIC = lowest concentration with no growth
Method: (§1) The following plant pathogenic bacterial strains were used: Erwinia amylovora PMV6076 (Institut National de la Recherche Agronomique, Angers, France), Pseudomonas syringae pv. syringae EPS94 (Institut de Tecnologia Agroalimentària, Universitat de Girona, Spain) and Xanthomonas axonopodis pv. vesicatoria 2133–2 (Instituto Valenciano de Investigaciones Agrarias, Valencia, Spain). All bacteria were stored in Luria Bertani (LB) broth supplemented with glycerol (20%) and maintained at -80°C. Bacteria were scrapped from LB agar after growing for 24–48 h at 25°C. The cell material was suspended in sterile water to obtain a suspension of 10^8 CFU mL^-1.
(§2) Lyophilized peptides were solubilized in sterile Milli-Q water to a final concentration of 1 mM and filter sterilized through a 0.22-μm pore filter. For minimum inhibitory concentration (MIC) assessment, dilutions of the compounds were made to obtain a stock concentration of […]. For antibacterial activity twenty microlitres of each dilution were mixed in a microtiter plate well with 20 μL of the corresponding suspension of the bacterial indicator, 160 μL of Trypticase Soy Broth (TSB) (BioMèrieux, France) to a total volume of 200 μL. For antifungal activity 20 μL of each stock solution were mixed in a microtiter plate well with 80 μL of the corresponding suspension of the fungal pathogen and 100 μL of double concentrated PDB to a total volume of 200 μL containing 0.003% w/v of choramphenicol.
(§3) Three replicates for each strain, compound and concentration were used. Microbial growth was determined by optical density measurement at 600 nm (Bioscreen C, Labsystem, Helsinki, Finland). For antibacterial activity microplates were incubated at 25°C with 20 sec shaking before hourly absorbance measurement for 48 h. For antifungal activity microplates were incubated at 20°C with 1 min shaking before absorbance measurement that were done every two hours during seven days. The experiment was repeated twice. The MIC was taken as the lowest compound concentration with no growth at the end of the experiment.

[2] = system: Pseudomonas syringae pv. syringae EPS94; type: cell-based; conditions: 48 h
Method: as §1, §2, §3

[3] = system: Fusarium oxysporum f. sp. lycopersici FOL 3 race 2; test: MIC, antifungal growth inhibition; type: cell-based
Method: Fusarium oxysporum f. sp. lycopersici FOL 3 race 2 (ATCC 201829, American Type Culture Collection) was used as fungal pathogen. The strain was cultured on potato dextrose agar (PDA) plates (Difco) and microconidia were obtained after growth at 25°C. The concentration of conidia was determined using a hemacytometer and adjusted to 10^4 conidia mL^-1.
as §2, §3

[4] = system: erythrocyte suspensions of horse blood; conditions: horse erythrocytes 5% vol/vol, TRIS buffer pH 7.2, 1 h at 37°C, absorbance 540 nm, relative to melittin 100 μM, ± confidence interval (α = 0.05); for Hemolysis (%) 150 µM: 150 µM peptide; for Hemolysis (%) 250 µM: 250 µM peptide;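 for all read-outs here: Read-out is hemoglobin release into the supernatant, with a buffer-only blank subtracted as the 0% baseline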
Method: Blood was centrifuged at 6000g for 5 min, washed three times with TRIS buffer (10 mM TRIS, 150 mM NaCl, pH 7.2) and diluted.
Compounds were solubilized in TRIS buffer and mixed with horse erythrocytes and the final concentrations tested were 250 and 150 μM. The mixture was incubated under continuous shaking for 1 h at 37°C. Then, the tubes were centrifuged at 3500g for 10 min, 80 μL aliquots of the supernatant transferred to 100-well microplates (Bioscreen), diluted with 80 μL water, and the absorbance measured at 540 nm (Bioscreen). Complete hemolysis was obtained by the addition of melittin at 100 μM (Sigma-Aldrich Corporation, Madrid, Spain). The percentage of hemolysis (H) was calculated using the equation: H = 100×[(Op−Ob)/(Om−Ob)], where Op was the density for a given compound concentration, Ob for the buffer, and Om for the melittin positive control.

[5] = system: Erwinia amylovora PMV6076; test: MIC, in vitro growth inhibition; type: cell-based; conditions: TSB, 25°C, 48 h, OD 600 nm; tested at 3.1, 6.2, 12.5, 25, 50 μM; three replicates, experiment repeated twice; MIC = lowest concentration with no growth
Method: as §1, §2, §3

[6] = PDB with 0.003% chloramphenicol, 20°C, seven days, OD 600 nm, tested at 3.1, 6.2, 12.5, 25, 50 μM, three replicates, repeated twice

Compound | MIC Xav [1] | MIC Pss [2] | MIC Fo [3, 6] | Hemolysis (%) 150 µM [4] | Hemolysis (%) 250 µM [4] | MIC Ea [5] | MIC Fo [3]
CCCCCCCC(=O)NCCCC[C@@H]1NC(=O)[C@H](CCCCN)NC(=O)[C@H](CC(C)C)NC(=O)[C@H](CCCCN)NC(=O)[C@H](CCCCN)NC(=O)[C@H](CCC(N)=O)NC(=O)[C@H](CC(C)C)NC(=O)[C@H](CCCCN)NC(=O)[C@H](CCCCN)NC(=O)[C@H](Cc2ccccc2)NC1=O [BPC498, c(KKLKK(CO-C7H15)FKKLQ)] (cyclo(FKKLQKKLKK(Octanoyl))) | 6.2 to 12.5 µM | 12.5 to 25 µM | 3.1 to 6.2 µM | 78 ± 4% | 100 ± 12% | 25 to 50 µM | 
CCCC(=O)NCCCC[C@@H]1NC(=O)[C@H](CCCCN)NC(=O)[C@H](CC(C)C)NC(=O)[C@H](CCCCN)NC(=O)[C@H](CCCCN)NC(=O)[C@H](CCC(N)=O)NC(=O)[C@H](CC(C)C)NC(=O)[C@H](CCCCN)NC(=O)[C@H](CCCCN)NC(=O)[C@H](Cc2c[nH]cn2)NC1=O [BPC718, c(KKLKK(CO-C3H7)HKKLQ)] (cyclo(HKKLQKKLKK(Butyryl))) | 12.5 to 25 µM | 12.5 to 25 µM | 6.2 to 12.5 µM | 3 ± 1% | 4 ± 1% | >50 µM | 
CCCC(=O)NCCCC[C@@H]1NC(=O)[C@H](CCC(N)=O)NC(=O)[C@H](CC(C)C)NC(=O)[C@H](CCCCN)NC(=O)[C@H](CCCCN)NC(=O)[C@H](Cc2c[nH]cn2)NC(=O)[C@H](CCCCN)NC(=O)[C@H](CCCCN)NC(=O)[C@H](CC(C)C)NC(=O)[C@H](CCCCN)NC1=O [BPC722] (cyclo(HKKLQK(Butyryl)KLKK)) | 25 to 50 µM | >50 µM | 3.1 to 6.2 µM | 3 ± 0.2% | 3 ± 0.1% | >50 µM | 
CCCCCC(=O)N[C@@H](CCCCN)C(=O)N[C@@H](CC(C)C)C(=O)NCCCC[C@@H]1NC(=O)[C@H](CCCCN)NC(=O)[C@H](CC(C)C)NC(=O)[C@H](CCCCN)NC(=O)[C@H](CCCCN)NC(=O)[C@H](CCC(N)=O)NC(=O)[C@H](CC(C)C)NC(=O)[C@H](CCCCN)NC(=O)[C@H](CCCCN)NC(=O)[C@@H](Cc2ccccc2)NC1=O [BPC674, c(KKLKK(LK-CO-nC5H11)fKKLQ)] (cyclo(KKLKK([Leu-Lys-Hexanoyl])[dF]KKLQ)) | 3.1 to 12.5 µM and 6.2 to 12.5 µM | 6.2 to 12.5 µM | 3.1 to 6.2 µM | 51 ± 2% | 56 ± 2% | 25 to 50 µM | 3.1 to 6.2 µM
CC(C)CCC(=O)NCCCC[C@@H]1NC(=O)[C@H](CCCCN)NC(=O)[C@H](CC(C)C)NC(=O)[C@H](CCCCN)NC(=O)[C@H](CCCCN)NC(=O)[C@H](CCC(N)=O)NC(=O)[C@H](CC(C)C)NC(=O)[C@H](CCCCN)NC(=O)[C@H](CCCCN)NC(=O)[C@@H](Cc2ccccc2)NC1=O [BPC626, c(KKLKK(CO-isoC5H11)fKKLQ)] (cyclo(KKLKK(Pentanoyl(4-Me))[dF]KKLQ)) | 6.2 to 12.5 µM | 12.5 to 25 µM | 6.2 to 12.5 µM | 51 ± 7% | 54 ± 4% | 25 to 50 µM | 
CCCC(=O)NCCCC[C@@H]1NC(=O)[C@H](CCCCN)NC(=O)[C@H](CC(C)C)NC(=O)[C@H](CCCCN)NC(=O)[C@H](CCCCN)NC(=O)[C@H](CCC(N)=O)NC(=O)[C@H](CC(C)C)NC(=O)[C@H](CCCCN)NC(=O)[C@H](CCCCN)NC(=O)[C@@H](Cc2ccccc2)NC1=O [BPC712, c(KKLKK(CO-C3H7)fKKLQ)] (cyclo(KKLKK(Butyryl)[dF]KKLQ)) | 3.1 to 12.5 µM and 3.1 to 6.2 µM | 12.5 to 25 µM | 3.1 to 6.2 µM | 30 ± 4% | 38 ± 7% | 25 to 50 µM | 3.1 to 6.2 µM
CCCC(=O)N[C@@H](CCCCN)C(=O)N[C@@H](CC(C)C)C(=O)NCCCC[C@@H]1NC(=O)[C@H](CCCCN)NC(=O)[C@H](CC(C)C)NC(=O)[C@H](CCCCN)NC(=O)[C@H](CCCCN)NC(=O)[C@H](CCC(N)=O)NC(=O)[C@H](CC(C)C)NC(=O)[C@H](CCCCN)NC(=O)[C@H](CCCCN)NC(=O)[C@@H](Cc2ccccc2)NC1=O [BPC726, c(KKLKK(LK-CO-C3H7)fKKLQ)] (cyclo(KKLKK([Leu-Lys-Butyryl])[dF]KKLQ)) | 6.2 to 12.5 µM | 12.5 to 25 µM | 3.1 to 6.2 µM | 0 ± 1% | 4 ± 2% | 25 to 50 µM | 
CCCCCCCC(=O)NCCCC[C@@H]1NC(=O)[C@H](CCCCN)NC(=O)[C@H](CC(C)C)NC(=O)[C@H](CCCCN)NC(=O)[C@H](CCCCN)NC(=O)[C@H](CCC(N)=O)NC(=O)[C@H](CC(C)C)NC(=O)[C@H](CCCCN)NC(=O)[C@H](CCCCN)NC(=O)[C@@H](Cc2ccccc2)NC1=O [BPC668, c(KKLKK(CO-C7H15)fKKLQ)] (cyclo(KKLKK(Octanoyl)[dF]KKLQ)) | 6.2 to 12.5 µM | 12.5 to 25 µM | 6.2 to 12.5 µM | 79 ± 2% | 79 ± 1% | 25 to 50 µM | 
CCCC(=O)NCCCC[C@@H]1NC(=O)[C@H](CCCCN)NC(=O)[C@H](CCC(N)=O)NC(=O)[C@H](CC(C)C)NC(=O)[C@H](CCCCN)NC(=O)[C@H](CCCCN)NC(=O)[C@H](Cc2c[nH]cn2)NC(=O)[C@H](CCCCN)NC(=O)[C@H](CCCCN)NC(=O)[C@H](CC(C)C)NC1=O [BPC720] (cyclo(HKKLQKK(Butyryl)LKK)) | 12.5 to 25 µM | 12.5 to 25 µM | <3.1 µM | 3 ± 1% | 4 ± 1% | >50 µM | 
CC(C)CCC(=O)NCCCC[C@H]1NC(=O)[C@H](CCCCN)NC(=O)[C@H](CC(C)C)NC(=O)[C@H](CCCCN)NC(=O)[C@H](CCCCN)NC(=O)[C@H](CCC(N)=O)NC(=O)[C@H](CC(C)C)NC(=O)[C@H](CCCCN)NC(=O)[C@H](CCCCN)NC(=O)[C@H](Cc2ccccc2)NC1=O [BPC630, c(KKLKk(CO-isoC5H11)FKKLQ)] (cyclo(FKKLQKKLK[dK](Pentanoyl(4-Me)))) | 6.2 to 12.5 µM | 6.2 to 12.5 µM | 6.2 to 12.5 µM | 22 ± 2% | 28 ± 3% | 25 to 50 µM | 
CCCCCC(=O)NCCCC[C@@H]1NC(=O)[C@H](CCCCN)NC(=O)[C@H](CC(C)C)NC(=O)[C@H](CCCCN)NC(=O)[C@H](CCCCN)NC(=O)[C@H](CCC(N)=O)NC(=O)[C@H](CC(C)C)NC(=O)[C@H](CCCCN)NC(=O)[C@H](CCCCN)NC(=O)[C@H](Cc2c[nH]cn2)NC1=O [BPC636, c(KKLKK(CO-nC5H11)HKKLQ)] (cyclo(HKKLQKKLKK(Hexanoyl))) | 12.5 to 25 µM | 6.2 to 12.5 µM | 6.2 to 12.5 µM | 5 ± 2% | 16 ± 5% | 25 to 50 µM | 
